Three molecules from ChEMBL document CHEMBL5137028, “Progress and Challenges in Targeting the SARS-CoV-2 Papain-like Protease” (J Med Chem, 2022) can be followed below.

In the assay the test system is SARS-CoV-2. Kind of assay: Antiviral activity against SARS-CoV-2 nCoV-2019BetaCoV/Wuhan/WIV04/2019 infected in African green monkey Vero E6 cells assessed as viral growth inhibition pretreated for 1 hr followed by infection at MOI of 0.01 and replacement of fresh medium containing compound measured after 24 hrs by plaque reduction assay. In kind it is functional, organism-based. The settings on record: Severe acute respiratory syndrome coronavirus 2, nCoV-2019BetaCoV/Wuhan/WIV04/2019, Vero C1008. (In a plaque reduction assay, fewer plaques than in the control indicate reduced infectivity or spread.)

In the case of `C[C@H]1COC2=C1C(=O)C(=O)c1c2ccc2c1CCCC2(C)C` [CRYPTOTANSHINONE], the EC50 turned out to be 700 nM.

`COCC[n+]1c2c(n(Cc3cnccn3)c1C)C(=O)c1ccccc1C2=O` [SEPANTRONIUM BROMIDE]: the EC50 is 170 nM.

Take `Cc1coc2c1C(=O)C(=O)c1c-2ccc2c(C)cccc12` [TANSHINONE I]: the EC50 amounted to 2260 nM.

The term EC50 denotes the concentration at which the effect is half-maximal.
